From patent publication US7846944B2, “Pyrazolo-pyridinone compounds and methods of use thereof” (Amgen Inc., priority 2007, dated 2010)
Read-outs that look alike come from different tables or passages of the source.

Tests used:
[1] = system: production of IL-1β, IL-6, and TNF-α by PBMC activated with LPS; assay: Lipopolysaccharide-activated PBMC cytokine production assay; format: cell-based; details: read-out: IC50 in the whole blood PMBC assay
Method: Lipopolysaccharide-Activated PBMC Cytokine Production Assay
Test compounds were evaluated in vitro for the ability to inhibit the production of IL-1β, IL-6, and TNF-α by PBMC activated with bacterial lipopolysaccharide (LPS). Fresh leukocytes were obtained from a local blood bank, and peripheral blood mononuclear cells (PBMCs) were isolated by density gradient centrifugation on Ficol-Paque Plus (Pharmacia).
Preparation of Test Compound Stock Solutions
All reagents were prepared in RPMI 1640+10% v/v human AB serum+1×Pens/Strep/Glu (assay medium). Test compounds were dissolved in 100% DMSO and serially diluted in 96-well polypropylene round bottom micro titer plates (drug plate). Serial dilutions were then diluted 1:250 into assay medium to a 4× working concentration. Compound serial dilutions were half-log, 10 point titrations with a final starting concentration of 1 μM.
Treatment of Cells with Test Compounds and Activation with Lipopolysaccharide
LPS was prepared to a 4× concentration in assay medium. 100 μl of PBMC (1×10^6 cells/ml) were plated in a 96-well polystyrene flat bottom micro titer tissue culture plate and incubated with 50 μl of 4× compound serial dilution for 1 hour at 37° C., 5% CO2 in a tissue culture incubator. 50 μl 4×LPS or control was added and the plates were incubated at 37° C., 5% CO2 in a tissue culture incubator for 18 hours. The final DMSO concentration was 0.1%. The total volume was 200 μL. The final LPS concentration was 100 ng/mL. After 18 hours culture supernatants were removed and IL-1β, IL-6, and TNF-α presence in the supernatants was quantified using MSD ECL based technology.
Cytokine Measurements 20 μL of culture supernatant were added to MSD plates, and incubated for one hour at room temperature. 20 μL of detection antibody diluted in antibody diluent (1 μg/mL), and 110 μL of 2× Read Buffer P was added, and incubated for one hour at RT. Electrochemiluminescence was measured using the SECTOR HTS Imager (MSD, Gaithersburg, Md.). Data Analysis
Compound IC50 values were calculated as follows: The proportion of cytokine production in the presence of compound compared to the cytokine production in the presence of the DMSO vehicle alone (Hi control) was calculated using the formula: Percent Control (POC)=(compound−average Lo)/(average Hi−average Lo)*100.

recombinant human p38α = recombinant human p38α (Homo sapiens, UniProt Q16539); assay: Purified and activated recombinant human p38α HTRF kinase assay; format: biochemical; details: 1 nM p38α, 50 μM ATP, GST-ATF2 substrate, read-out: p38a IC50
recombinant human p38α, sequence (Q16539 whole entry): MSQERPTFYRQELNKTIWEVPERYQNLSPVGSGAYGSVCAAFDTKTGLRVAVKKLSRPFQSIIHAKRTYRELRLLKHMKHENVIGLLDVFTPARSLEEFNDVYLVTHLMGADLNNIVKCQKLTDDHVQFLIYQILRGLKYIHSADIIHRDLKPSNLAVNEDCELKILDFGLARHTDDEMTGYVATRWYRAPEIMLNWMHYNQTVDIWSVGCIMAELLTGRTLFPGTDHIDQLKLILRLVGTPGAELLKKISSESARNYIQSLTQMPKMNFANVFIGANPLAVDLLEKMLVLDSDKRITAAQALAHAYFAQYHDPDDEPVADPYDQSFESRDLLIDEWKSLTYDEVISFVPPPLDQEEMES

[2] = system: TNF-α secretion by LPS-treated THP1 cells; assay: Lipopolysaccharide-activated THP1 cell TNF production assay; format: cell-based; details: Homo sapiens, read-out: IC50 in the THP-1 cellular TNF production assay
[3] = system: Collagen-Induced Arthritis (CIA) Model in Rats; assay: Collagen-induced arthritis (CIA) model in rats; format: in vivo; details: 168 h; rat, treated for 7 days from onset of arthritis
Method: Collagen-Induced Arthritis (CIA) Model in Rats
Porcine type II collagen (10 mg) was dissolved in 0.1N acetic acid (5 mL) two days prior to use on a rotating plate in the refrigerator. Subsequently, collagen was emulsified 1:1 with Freund's incomplete adjuvant using an emulsification needle and glass syringes yielding a final concentration of 1 mg/mL.
Disease was induced in each animal by intradermal injection of emulsified collagen in IFA at 10 different sites (100 μL per site) over the back. […] At onset (defined as Day 0), rats were randomized to treatment groups and therapy was initiated with drug or vehicle control as noted in table above. Rats were treated for 7 days and were sacrificed on Day 8.

[4] = LPS 100 ng/mL, 18 hours, IL-1β, IL-6, TNF-α
[5] = THP-1, LPS, 3 hours, THP1 cells

IC50 (recombinant human p38α) [nM] | IC50 [2, 5] [nM] | SMILES | IC50 [1, 4] [nM] | ED50 [3] [mg/kg] | IC50 ([1]; 18 h) [nM] | IC50 ([2]; THP-1, 3 h) [nM]
1.8 | ≤ 175 | Cc1c(F)cc(C(=O)NC2CC2)cc1-c1cc2cnn(-c3c(F)cccc3F)c2n(C)c1=O [Example 2, N-cyclopropyl-3-(1-(2,6-difluorophenyl)-7-methyl-6-oxo-6,7-dihydro-1H-pyrazolo[3,4-b]pyridin-5-yl)-5-fluoro-4-methylbenzamide] | ≤ 125 |  |  | 
3.4 | ≤ 175 | Cc1ccc(C(N)=O)cc1-c1cc2cnn(-c3c(F)cccc3F)c2n(C)c1=O [Example 44, 3-(1-(2,6-difluorophenyl)-7-methyl-6-oxo-6,7-dihydro-1H-pyrazolo[3,4-b]pyridin-5-yl)-4-methylbenzamide] | ≤ 125 | 0.07 |  | 
2.4 | ≤ 175 | Cc1c(F)cc(C(=O)Nc2ccon2)cc1-c1cc2cnn(-c3c(F)cccc3F)c2n(C)c1=O [Example 3, 3-(1-(2,6-difluorophenyl)-7-methyl-6-oxo-6,7-dihydro-1H-pyrazolo[3,4-b]pyridin-5-yl)-5-fluoro-N-3-isoxazolyl-4-methylbenzamide] | ≤ 125 |  |  | 
1 | ≤ 175 | Cc1c(F)cc(C(N)=O)cc1-c1cc2cnn(-c3c(F)cccc3F)c2n(C)c1=O [Example 31, 3-(1-(2,6-difluorophenyl)-7-methyl-6-oxo-6,7-dihydro-1H-pyrazolo[3,4-b]pyridin-5-yl)-5-fluoro-4-methylbenzamide] | ≤ 125 |  |  | 
2.3 | ≤ 175 | Cc1c(F)cc(C(=O)NC2CC2)cc1-c1cc2cnn(-c3ccccc3Cl)c2n(C)c1=O [Example 8, 3-(1-(2-chlorophenyl)-7-methyl-6-oxo-6,7-dihydro-1H-pyrazolo[3,4-b]pyridin-5-yl)-N-cyclopropyl-5-fluoro-4-methylbenzamide] | ≤ 125 |  |  | 
2.4 | ≤ 175 | Cc1ccc(C(=O)Nc2ccon2)cc1-c1cc2cnn(-c3ccc(F)cc3F)c2n(C)c1=O [Example 27, 3-(1-(2,4-difluorophenyl)-7-methyl-6-oxo-6,7-dihydro-1H-pyrazolo[3,4-b]pyridin-5-yl)-N-3-isoxazolyl-4-methylbenzamide] | ≤ 125 |  |  | 
1.8 | ≤ 175 | Cc1ccc(C(=O)NC2CC2)cc1-c1cc2cnn(-c3ccccc3Cl)c2n(C)c1=O [Example 12, 3-(1-(2-chlorophenyl)-7-methyl-6-oxo-6,7-dihydro-1H-pyrazolo[3,4-b]pyridin-5-yl)-N-cyclopropyl-4-methylbenzamide] | ≤ 125 |  |  | 
 | ≤ 175 | Cc1ccc(C(=O)NC2CC2)cc1-c1cc2cnn(-c3c(F)cccc3F)c2n(C)c1=O [Example 7, N-cyclopropyl-3-(1-(2,6-difluorophenyl)-7-methyl-6-oxo-6,7-dihydro-1H-pyrazolo[3,4-b]pyridin-5-yl)-4-methylbenzamide] | ≤ 125 | 0.01 |  | 
 |  | Cc1ccc(C(=O)NC2CC2)cc1-c1cc2cnn(-c3ccc(F)cc3F)c2n(C)c1=O [Example 13, N-cyclopropyl-3-(1-(2,4-difluorophenyl)-7-methyl-6-oxo-6,7-dihydro-1H-pyrazolo[3,4-b]pyridin-5-yl)-4-methylbenzamide] |  | 0.02 | ≤ 125 | ≤ 175
